# Results published in patent publication US20250034136A1 (Nimbus Wadjet, Inc., priority 2023, published 2025).
# Columns and labels:
# [1] = biological target: WRN (BV08), human Werner helicase (Uniprot Q14191, amino acids 517-1235 with L1074F point mutation) (Homo sapiens (Human), UniProt Q14191, L1074F); test: WRN (BV08) ADP-Glo assay; type: biochemical; conditions: class symbols A-E, read-out: ADP-Glo_hWRN_IC50
# [2] = system: p21 induction in HCT116 cells; test: p21 induction in HCT116 cells; type: cell-based; conditions: Homo sapiens, HCT-116, 24 h, HCT116 cells, 24 h compound incubation; read-out: P21_EC50
# Summary of the method: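 EC50 from non-linear curve fit of p21 immunofluorescence (800 nm), with GAPDH (700 nm) read alongside. DMSO and a reference WRN inhibitor served as low and high controls. Cells (2,000/well) got 11 compound concentrations in duplicate for 24 h at 37 °C.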
# Sequence of WRN (BV08), human Werner helicase (Uniprot Q14191, amino acids 517-1235 with L1074F point mutation) (Q14191 other isoform, or with tags, fused parts or gaps L1074F (already in the parent)): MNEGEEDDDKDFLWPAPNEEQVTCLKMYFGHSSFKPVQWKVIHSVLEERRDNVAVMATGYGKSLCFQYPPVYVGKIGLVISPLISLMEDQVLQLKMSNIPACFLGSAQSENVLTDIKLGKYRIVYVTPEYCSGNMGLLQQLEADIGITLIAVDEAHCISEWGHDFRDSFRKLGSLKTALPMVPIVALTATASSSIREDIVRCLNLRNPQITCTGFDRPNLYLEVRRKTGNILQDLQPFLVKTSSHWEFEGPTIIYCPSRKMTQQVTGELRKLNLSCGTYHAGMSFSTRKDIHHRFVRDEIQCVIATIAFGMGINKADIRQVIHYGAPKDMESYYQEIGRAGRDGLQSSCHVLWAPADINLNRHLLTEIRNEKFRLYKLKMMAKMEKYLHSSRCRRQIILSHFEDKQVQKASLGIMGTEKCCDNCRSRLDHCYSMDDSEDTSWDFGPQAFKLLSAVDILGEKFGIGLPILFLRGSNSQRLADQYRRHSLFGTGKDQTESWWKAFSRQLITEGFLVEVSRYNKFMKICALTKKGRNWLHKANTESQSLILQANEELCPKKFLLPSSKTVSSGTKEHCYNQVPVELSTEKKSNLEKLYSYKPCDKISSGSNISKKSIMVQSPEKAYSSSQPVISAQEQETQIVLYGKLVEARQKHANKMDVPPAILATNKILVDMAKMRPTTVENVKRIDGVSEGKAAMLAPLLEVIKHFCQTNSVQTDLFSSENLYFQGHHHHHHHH
IC50 [1] [nM],EC50 [2] [nM],Structure (SMILES)
5 to 50,> 5000,"CCc1c(N2CCN(C(=O)c3ncnc(C)c3O)CC2)c(=O)c2nc(N3CC(F)(F)C3)cnc2n1CC(=O)Nc1ccc(C(F)(F)F)cc1Cl [I-160, N-[2-chloro-4-(trifluoromethyl)phenyl]-2-[2-(3,3-difluoroazetidin-1-yl)-6-ethyl-7-[4-(5-hydroxy-6-methylpyrimidine-4-carbonyl)piperazin-1-yl]-8-oxo-5H,8H-pyrido[2,3-b]pyrazin-5-yl]acetamide]"
5 to 50,2000 to 5000,"CCc1c(N2CCN(C(=O)c3ncnc(C)c3O)CC2)c(=O)c2nc(NC3CCC3)cnc2n1CC(=O)Nc1ccc(C(F)(F)F)cc1Cl [I-161, N-[2-chloro-4-(trifluoromethyl)phenyl]-2-[2-(cyclobutylamino)-6-ethyl-7-[4-(5-hydroxy-6-methylpyrimidine-4-carbonyl)piperazin-1-yl]-8-oxo-5H,8H-pyrido[2,3-b]pyrazin-5-yl]acetamide]"
5 to 50,500 to 2000,"CCc1c(N2CCN(C(=O)c3ncnc(C)c3O)CC2)c(=O)c2nc(N3CC4(CC4)C3)cnc2n1CC(=O)Nc1ccc(C(F)(F)F)cc1Cl [I-162, 2-(2-{5-azaspiro[2.3]hexan-5-yl}-6-ethyl-7-[4-(5-hydroxy-6-methylpyrimidine-4-carbonyl)piperazin-1-yl]-8-oxo-5H,8H-pyrido[2,3-b]pyrazin-5-yl)-N-[2-chloro-4-(trifluoromethyl)phenyl]acetamide]"
5 to 50,> 5000,"CCc1c(N2CCN(C(=O)c3ncnc(C)c3O)CC2)c(=O)c2nc(N3CCC4(COC4)C3)cnc2n1CC(=O)Nc1ccc(C(F)(F)F)cc1Cl [I-163, N-[2-chloro-4-(trifluoromethyl)phenyl]-2-{6-ethyl-7-[4-(5-hydroxy-6-methylpyrimidine-4-carbonyl)piperazin-1-yl]-2-{2-oxa-6-azaspiro[3.4]octan-6-yl}-8-oxo-5H,8H-pyrido[2,3-b]pyrazin-5-yl}acetamide]"
5 to 50,2000 to 5000,"CCc1c(N2CCN(C(=O)c3ncnc(C)c3O)CC2)c(=O)c2nc(N3CC(F)C3)cnc2n1CC(=O)Nc1ccc(C(F)(F)F)cc1Cl [I-164, N-[2-chloro-4-(trifluoromethyl)phenyl]-2-[6-ethyl-2-(3-fluoroazetidin-1-yl)-7-[4-(5-hydroxy-6-methylpyrimidine-4-carbonyl)piperazin-1-yl]-8-oxo-5H,8H-pyrido[2,3-b]pyrazin-5-yl]acetamide]"
5 to 50,500 to 2000,"CCc1c(N2CCN(C(=O)c3ncnc(C)c3O)CC2)c(=O)c2nc(NC3CC3)cnc2n1CC(=O)Nc1ccc(C(F)(F)F)cc1Cl [I-165, N-[2-chloro-4-(trifluoromethyl)phenyl]-2-[2-(cyclopropylamino)-6-ethyl-7-[4-(5-hydroxy-6-methylpyrimidine-4-carbonyl)piperazin-1-yl]-8-oxo-5H,8H-pyrido[2,3-b]pyrazin-5-yl]acetamide]"
5 to 50,2000 to 5000,"CCc1c(N2CCN(C(=O)c3ncnc(C)c3O)CC2)c(=O)c2nc(N(C)C(C)C)cnc2n1CC(=O)Nc1ccc(C(F)(F)F)cc1Cl [I-175, N-[2-chloro-4-(trifluoromethyl)phenyl]-2-{6-ethyl-7-[4-(5-hydroxy-6-methylpyrimidine-4-carbonyl)piperazin-1-yl]-2-[methyl(propan-2-yl)amino]-8-oxo-5H,8H-pyrido[2,3-b]pyrazin-5-yl}acetamide]"
50 to 100,> 5000,"CCc1c(N2CCN(C(=O)c3ncnc(C)c3O)C3(CC3)C2)c(=O)c2nc(N(C)C)cnc2n1CC(=O)Nc1ccc(C(F)(F)F)cc1Cl [I-176, N-[2-chloro-4-(trifluoromethyl)phenyl]-2-[2-(dimethylamino)-6-ethyl-7-[4-(5-hydroxy-6-methylpyrimidine-4-carbonyl)-4,7-diazaspiro[2.5]octan-7-yl]-8-oxo-5H,8H-pyrido[2,3-b]pyrazin-5-yl]acetamide]"

# Further lines, the molecule ahead of its results:
Structure (SMILES),IC50 [1] [nM],EC50 [2] [nM]
"CCc1c(N2CCN(C(=O)c3ncnc(C)c3O)CC2)c(=O)c2nc(C=C3CCCC3)cnc2n1CC(=O)Nc1ccc(C(F)(F)F)cc1Cl [I-166, N-[2-chloro-4-(trifluoromethyl)phenyl]-2-[2-(cyclopentylidenemethyl)-6-ethyl-7-[4-(5-hydroxy-6-methylpyrimidine-4-carbonyl)piperazin-1-yl]-8-oxo-5H,8H-pyrido[2,3-b]pyrazin-5-yl]acetamide]",≤ 5,500 to 2000
"CCc1c(N2CCN(C(=O)c3ncnc(C)c3O)CC2)c(=O)c2nc(N(C)CC(F)F)cnc2n1CC(=O)Nc1ccc(C(F)(F)F)cc1Cl [I-167, N-[2-chloro-4-(trifluoromethyl)phenyl]-2-{2-[(2,2-difluoroethyl)(methyl)amino]-6-ethyl-7-[4-(5-hydroxy-6-methylpyrimidine-4-carbonyl)piperazin-1-yl]-8-oxo-5H,8H-pyrido[2,3-b]pyrazin-5-yl}acetamide]",5 to 50,2000 to 5000
"CCc1c(N2CC3COCC(C2)N3C(=O)c2ncnc(C)c2O)c(=O)c2nc(N(C)C)cnc2n1CC(=O)Nc1ccc(C(F)(F)F)cc1Cl [I-168, N-[2-chloro-4-(trifluoromethyl)phenyl]-2-[2-(dimethylamino)-6-ethyl-7-[9-(5-hydroxy-6-methylpyrimidine-4-carbonyl)-3-oxa-7,9-diazabicyclo[3.3.1]nonan-7-yl]-8-oxo-5H,8H-pyrido[2,3-b]pyrazin-5-yl]acetamide]",100 to 500,> 5000
"CCc1c(N2CCN(C(=O)c3ncnc(C)c3O)CC2)c(=O)c2nc(N3CCC34CCC4)cnc2n1CC(=O)Nc1ccc(C(F)(F)F)cc1Cl [I-170, 2-(2-{1-azaspiro[3.3]heptan-1-yl}-6-ethyl-7-[4-(5-hydroxy-6-methylpyrimidine-4-carbonyl)piperazin-1-yl]-8-oxo-5H,8H-pyrido[2,3-b]pyrazin-5-yl)-N-[2-chloro-4-(trifluoromethyl)phenyl]acetamide]",5 to 50,< 500
"CCc1c(N2CCN(C(=O)c3ncnc(C)c3O)CC2)c(=O)c2nc(C(C)(C)F)cnc2n1CC(=O)Nc1ccc(C(F)(F)F)cc1Cl [I-174, N-[2-chloro-4-(trifluoromethyl)phenyl]-2-[6-ethyl-2-(2-fluoropropan-2-yl)-7-[4-(5-hydroxy-6-methylpyrimidine-4-carbonyl)piperazin-1-yl]-8-oxo-5H,8H-pyrido[2,3-b]pyrazin-5-yl]acetamide]",5 to 50,2000 to 5000
"CCc1c(N2CCN(C(=O)c3ncnc(C)c3O)CC2)c(=O)c2nc(N3CCC(F)(F)C3)cnc2n1CC(=O)Nc1ccc(C(F)(F)F)cc1Cl [I-177, N-[2-chloro-4-(trifluoromethyl)phenyl]-2-[2-(3,3-difluoropyrrolidin-1-yl)-6-ethyl-7-[4-(5-hydroxy-6-methylpyrimidine-4-carbonyl)piperazin-1-yl]-8-oxo-5H,8H-pyrido[2,3-b]pyrazin-5-yl]acetamide]",5 to 50,> 5000
"CCc1c(N2CCN(C(=O)c3ncnc(C)c3O)C(CO)C2)c(=O)c2nc(N(C)C)cnc2n1CC(=O)Nc1ccc(C(F)(F)F)cc1Cl (stereo not drawn) [I-178, N-[2-chloro-4-(trifluoromethyl)phenyl]-2-[2-(dimethylamino)-6-ethyl-7-[4-(5-hydroxy-6-methylpyrimidine-4-carbonyl)-3-(hydroxymethyl)piperazin-1-yl]-8-oxo-5H,8H-pyrido[2,3-b]pyrazin-5-yl]acetamide]",5 to 50,> 5000
